Measured values reported in PMC11576293, “New series of 4,6-diaryl pyrimidines: facile synthesis and antiproliferative activity as dual EGFR/VEGFR-2 inhibitors” (Frontiers in Chemistry, 2024).

Tests used:
Experiment in all cases: NCI-60 single-dose screen
Format in all cases: cell-based
NCI-H460 = details: Homo sapiens, single dose 10 µM, '-' = no inhibition, read-out: % Growth Inhibition
Procedure: (§1) The National Cancer Institute’s Developmental Therapeutic Program (www.dtp.nci.nih.gov) has tested compounds 9–29 (except compounds 21 and 22) against 60 cancer cell lines from nine types (leukemia, lung, colon, CNS, melanoma, ovarian, renal, prostate, and breast cancer) at a single dose (10 μM) ([El-Sherief et al., 2018]). […] The most sensitive cells included leukemia (SR, K-562, and MOLT-4), lung (NCI-H522, […], and EKVX), breast (MCF-7 and T-47D), colon (HCT-15 and HT-29), and ovarian (NCI/ADR-RES).
(§2) The National Cancer Institute’s Developmental Therapeutic Program (www.dtp.nci.nih.gov) evaluated compounds 9–29 (excluding 21 and 22) against 60 cancer cell lines from nine categories (leukemia, lung, colon, CNS, melanoma, ovarian, renal, prostate, and breast cancer) at a single dose (10 μM) ([El-Sherief et al., 2018]). See Supplementary Material A1 for more details.

UACC-62 = details: Homo sapiens, single dose 10 µM, '-' = no inhibition, read-out: % Growth Inhibition
Procedure: as §1, §2

SK-MEL-2 = details: Homo sapiens, single dose 10 µM, '-' = no inhibition, read-out: % Growth Inhibition
Procedure: as §1, §2

MDA-MB-435 = details: Homo sapiens, single dose 10 µM, '-' = no inhibition, read-out: % Growth Inhibition
Procedure: as §1, §2

NCI-H522 = details: Homo sapiens, single dose 10 µM, '-' = no inhibition, read-out: % Growth Inhibition
Procedure: as §1, §2

MCF7 = details: Homo sapiens, single dose 10 µM, '-' = no inhibition, read-out: % Growth Inhibition
Procedure: as §1, §2

MDA-MB-468 = details: Homo sapiens, single dose 10 µM, '-' = no inhibition, read-out: % Growth Inhibition
Procedure: as §1, §2

SK-OV-3 = details: Homo sapiens, single dose 10 µM, '-' = no inhibition, read-out: % Growth Inhibition
Procedure: as §1, §2

EKVX = details: Homo sapiens, single dose 10 µM, '-' = no inhibition, read-out: % Growth Inhibition
Procedure: as §1, §2

SF-268 = details: Homo sapiens, single dose 10 µM, '-' = no inhibition, read-out: % Growth Inhibition
Procedure: as §1, §2

HS 578T = details: Homo sapiens, single dose 10 µM, '-' = no inhibition, read-out: % Growth Inhibition
Procedure: as §1, §2

HCT-15 = details: Homo sapiens, single dose 10 µM, '-' = no inhibition, read-out: % Growth Inhibition
Procedure: as §1, §2

CCRF-CEM = details: Homo sapiens, single dose 10 µM, '-' = no inhibition, read-out: % Growth Inhibition
Procedure: as §1, §2

OVCAR-5 = details: Homo sapiens, single dose 10 µM, '-' = no inhibition, read-out: % Growth Inhibition
Procedure: as §1, §2

BT-549 = details: Homo sapiens, single dose 10 µM, '-' = no inhibition, read-out: % Growth Inhibition
Procedure: as §1, §2

HOP-62 = details: Homo sapiens, single dose 10 µM, '-' = no inhibition, read-out: % Growth Inhibition
Procedure: as §1, §2

SW-620 = details: Homo sapiens, single dose 10 µM, '-' = no inhibition, read-out: % Growth Inhibition
Procedure: as §1, §2

SNB-75 = details: Homo sapiens, single dose 10 µM, '-' = no inhibition, read-out: % Growth Inhibition
Procedure: as §1, §2

HOP-92 = details: Homo sapiens, single dose 10 µM, '-' = no inhibition, read-out: % Growth Inhibition
Procedure: as §1, §2

NCI/ADR-RES = details: Homo sapiens, single dose 10 µM, '-' = no inhibition, read-out: % Growth Inhibition
Procedure: as §1, §2

HCC-2998 = details: Homo sapiens, single dose 10 µM, '-' = no inhibition, read-out: % Growth Inhibition
Procedure: as §1, §2

HCT-116 = details: Homo sapiens, single dose 10 µM, '-' = no inhibition, read-out: % Growth Inhibition
Procedure: as §1, §2

UO-31 = details: Homo sapiens, single dose 10 µM, '-' = no inhibition, read-out: % Growth Inhibition
Procedure: as §1, §2

A549/ATCC = details: Homo sapiens, single dose 10 µM, '-' = no inhibition, read-out: % Growth Inhibition
Procedure: as §1, §2

CAKI-1 = details: Homo sapiens, single dose 10 µM, '-' = no inhibition, read-out: % Growth Inhibition
Procedure: as §1, §2

M14 = details: Homo sapiens, single dose 10 µM, '-' = no inhibition, read-out: % Growth Inhibition
Procedure: as §1, §2

786-0 = details: Homo sapiens, single dose 10 µM, '-' = no inhibition, read-out: % Growth Inhibition
Procedure: as §1, §2

MALME-3M = details: Homo sapiens, single dose 10 µM, '-' = no inhibition, read-out: % Growth Inhibition
Procedure: as §1, §2

SF-539 = details: Homo sapiens, single dose 10 µM, '-' = no inhibition, read-out: % Growth Inhibition
Procedure: as §1, §2

SK-MEL-28 = details: Homo sapiens, single dose 10 µM, '-' = no inhibition, read-out: % Growth Inhibition
Procedure: as §1, §2

IGROV1 = details: Homo sapiens, IGROV-1, single dose 10 µM, '-' = no inhibition, read-out: % Growth Inhibition
Procedure: as §1, §2

KM12 = details: Homo sapiens, single dose 10 µM, '-' = no inhibition, read-out: % Growth Inhibition
Procedure: as §1, §2

T-47D = details: Homo sapiens, T47D, single dose 10 µM, '-' = no inhibition, read-out: % Growth Inhibition
Procedure: as §1, §2

U251 = details: Homo sapiens, U-251, single dose 10 µM, '-' = no inhibition, read-out: % Growth Inhibition
Procedure: as §1, §2

SK-MEL-5 = details: Homo sapiens, single dose 10 µM, '-' = no inhibition, read-out: % Growth Inhibition
Procedure: as §1, §2

SNB-19 = details: Homo sapiens, single dose 10 µM, '-' = no inhibition, read-out: % Growth Inhibition
Procedure: as §1, §2

OVCAR-3 = details: Homo sapiens, single dose 10 µM, '-' = no inhibition, read-out: % Growth Inhibition
Procedure: as §1, §2

SF-295 = details: Homo sapiens, single dose 10 µM, '-' = no inhibition, read-out: % Growth Inhibition
Procedure: as §1, §2

RPMI-8226 = details: Homo sapiens, single dose 10 µM, '-' = no inhibition, read-out: % Growth Inhibition
Procedure: as §1, §2

TK-10 = details: Homo sapiens, single dose 10 µM, '-' = no inhibition, read-out: % Growth Inhibition
Procedure: as §1, §2

MOLT-4 = details: Homo sapiens, single dose 10 µM, '-' = no inhibition, read-out: % Growth Inhibition
Procedure: as §1, §2

A498 = details: Homo sapiens, single dose 10 µM, '-' = no inhibition, read-out: % Growth Inhibition
Procedure: as §1, §2

PC-3 = details: Homo sapiens, single dose 10 µM, '-' = no inhibition, read-out: % Growth Inhibition
Procedure: as §1, §2

SN12C = details: Homo sapiens, single dose 10 µM, '-' = no inhibition, read-out: % Growth Inhibition
Procedure: as §1, §2

RXF 393 = details: Homo sapiens, single dose 10 µM, '-' = no inhibition, read-out: % Growth Inhibition
Procedure: as §1, §2

HT29 = details: Homo sapiens, HT-29, single dose 10 µM, '-' = no inhibition, read-out: % Growth Inhibition
Procedure: as §1, §2

ACHN 1 = details: Homo sapiens, single dose 10 µM, '-' = no inhibition, read-out: % Growth Inhibition
Procedure: as §1, §2

UACC-257 = details: Homo sapiens, single dose 10 µM, '-' = no inhibition, read-out: % Growth Inhibition
Procedure: as §1, §2

For COc1ccc(-c2cc(-c3cccc(OC)c3)nc(SC)n2)cc1 [Compound 16, 6-(3-Methoxyphenyl)-4-(4-methoxyphenyl)-2-(methylthio)pyrimidine], the inhibition at 10 µM (NCI-H460) was 1.75%, the inhibition at 10 µM (UACC-62) was 23.9% and the inhibition at 10 µM (SK-MEL-2) was 2.91%. For the same compound, the inhibition at 10 µM (MDA-MB-435) was 6.06%, the inhibition at 10 µM (NCI-H522) was 14.1% and the inhibition at 10 µM (MCF7) was 11.3%. For the same compound, the inhibition at 10 µM (MDA-MB-468) was 17.4%, the inhibition at 10 µM (SK-OV-3) was 13.7% and the inhibition at 10 µM (EKVX) was 21.7%. The inhibition at 10 µM (SF-268) was 15.7%, the inhibition at 10 µM (HS 578T) was 5.45% and the inhibition at 10 µM (HCT-15) was 19.5%. It also gave an inhibition at 10 µM (CCRF-CEM) of 8.85%, an inhibition at 10 µM (OVCAR-5) of under 0% and an inhibition at 10 µM (BT-549) of 3.3%. It also gave an inhibition at 10 µM (HOP-62) of 1.53%, an inhibition at 10 µM (SW-620) of 1.89% and an inhibition at 10 µM (SNB-75) of under 0%. For the same compound, the inhibition at 10 µM (HOP-92) was 1.87%, the inhibition at 10 µM (NCI/ADR-RES) was 11.6% and the inhibition at 10 µM (HCC-2998) was under 0%. It also gave an inhibition at 10 µM (HCT-116) of 17.3%, an inhibition at 10 µM (UO-31) of 20% and an inhibition at 10 µM (A549/ATCC) of 13%. It also gave an inhibition at 10 µM (CAKI-1) of 20.8%, an inhibition at 10 µM (M14) of under 0% and an inhibition at 10 µM (786-0) of under 0%. The inhibition at 10 µM (MALME-3M) was under 0%, the inhibition at 10 µM (SF-539) was under 0% and the inhibition at 10 µM (SK-MEL-28) was under 0%. The inhibition at 10 µM (IGROV1) was under 0%, the inhibition at 10 µM (KM12) was 6.2% and the inhibition at 10 µM (T-47D) was 22.2%. For the same compound, the inhibition at 10 µM (U251) was 10.7%, the inhibition at 10 µM (SK-MEL-5) was 6.46% and the inhibition at 10 µM (SNB-19) was under 0%. The inhibition at 10 µM (OVCAR-3) was under 0%, the inhibition at 10 µM (SF-295) was 4.05% and the inhibition at 10 µM (RPMI-8226) was 3.81%. It also gave an inhibition at 10 µM (TK-10) of under 0%, an inhibition at 10 µM (MOLT-4) of 19.9% and an inhibition at 10 µM (A498) of under 0%. The inhibition at 10 µM (PC-3) was 16.6%, the inhibition at 10 µM (SN12C) was 17.9% and the inhibition at 10 µM (RXF 393) was 11.6%. The inhibition at 10 µM (HT29) was 26.2%, the inhibition at 10 µM (ACHN 1) was under 0% and the inhibition at 10 µM (UACC-257) was under 0%.
Work on CCCSc1nc(-c2ccc(OC)cc2)cc(-c2cccc(OC)c2)n1 [Compound 18, 6-(3-Methoxyphenyl)-4-(4-methoxyphenyl)-2-(propylthio)pyrimidine] yielded an inhibition at 10 µM (NCI-H460) of under 0%, an inhibition at 10 µM (UACC-62) of under 0% and an inhibition at 10 µM (SK-MEL-2) of 3.6%. It also gave an inhibition at 10 µM (MDA-MB-435) of 5.12%, an inhibition at 10 µM (NCI-H522) of under 0% and an inhibition at 10 µM (MCF7) of 17.3%. It also gave an inhibition at 10 µM (MDA-MB-468) of under 0%, an inhibition at 10 µM (SK-OV-3) of under 0% and an inhibition at 10 µM (EKVX) of under 0%. It also gave an inhibition at 10 µM (SF-268) of under 0%, an inhibition at 10 µM (HS 578T) of under 0% and an inhibition at 10 µM (HCT-15) of 8.49%. It also gave an inhibition at 10 µM (CCRF-CEM) of under 0%, an inhibition at 10 µM (OVCAR-5) of under 0% and an inhibition at 10 µM (BT-549) of under 0%. For the same compound, the inhibition at 10 µM (HOP-62) was under 0%, the inhibition at 10 µM (SW-620) was under 0% and the inhibition at 10 µM (SNB-75) was under 0%. For the same compound, the inhibition at 10 µM (HOP-92) was under 0%, the inhibition at 10 µM (NCI/ADR-RES) was under 0% and the inhibition at 10 µM (HCC-2998) was under 0%. For the same compound, the inhibition at 10 µM (HCT-116) was 3.37%, the inhibition at 10 µM (UO-31) was under 0% and the inhibition at 10 µM (A549/ATCC) was 7.77%. For the same compound, the inhibition at 10 µM (CAKI-1) was 4%, the inhibition at 10 µM (M14) was 9.08% and the inhibition at 10 µM (786-0) was under 0%. The inhibition at 10 µM (MALME-3M) was under 0%, the inhibition at 10 µM (SF-539) was under 0% and the inhibition at 10 µM (SK-MEL-28) was under 0%. For the same compound, the inhibition at 10 µM (IGROV1) was under 0%, the inhibition at 10 µM (KM12) was 1.47% and the inhibition at 10 µM (T-47D) was 13.8%. For the same compound, the inhibition at 10 µM (U251) was under 0%, the inhibition at 10 µM (SK-MEL-5) was 3.1% and the inhibition at 10 µM (SNB-19) was under 0%. The inhibition at 10 µM (OVCAR-3) was under 0%, the inhibition at 10 µM (SF-295) was under 0% and the inhibition at 10 µM (RPMI-8226) was under 0%. The inhibition at 10 µM (TK-10) was under 0%, the inhibition at 10 µM (MOLT-4) was 6.49% and the inhibition at 10 µM (A498) was under 0%. For the same compound, the inhibition at 10 µM (PC-3) was under 0%, the inhibition at 10 µM (SN12C) was under 0% and the inhibition at 10 µM (RXF 393) was under 0%. It also gave an inhibition at 10 µM (HT29) of 4.83%, an inhibition at 10 µM (ACHN 1) of under 0% and an inhibition at 10 µM (UACC-257) of under 0%.
